Laboratory results: US9255263B2, “Antithrombotic compounds” (King's College London, priority 2009, dated 2016)
Where “and” joins values, the source holds several entries; their conditions need not be identical. Identical values can stand only once. Where no end group is shown, it is not given here. The star is where a group is joined. Myristoyl = CCCCCCCCCCCCCC(=O)*

Legend:
[1] = target: human thrombin (Homo sapiens, UniProt P00734); assay: GPBC assay: compound bound to guinea pig erythrocytes against exogenous human thrombin; type: cell-based; details: inhibitors 1 uM at cell-binding step, normalised for cell number
Method: Method and results. Guinea Pig Blood Cells (GPBCs Harlan, UK) were extensively washed with Gelatin Veronal Buffer (GVB, Sigma G6514). A fixed volume of cell suspension (100 ul containing about 10^8 cells) was then diluted 1:1 with GVB before Compounds 1 or 2 were added; control HLL was used at the same final concentration. Cells were incubated for 10 min at ambient temperature with gentle agitation. Three washes with GVB were performed (each with at least 500 ul GVB) before discarding the supernatant and leaving cell pellet as dry as possible. Cell pellet was then resuspended with GVB and hThrombin (between 0.01 and 0.1 units) was added: reaction volume was 460 ul. Cells were incubated for 3 min at 37° C. in a waterbath and after incubation, gently pelleted by centrifugation. Supernatant (˜400 ul) was recovered and spun again to remove any residual cells. Supernatant (380 ul) was transferred to a spectrophotometer and 70 µl of GVB and 50 ul thrombin substrate (1 mM in GVB) added. The sample adsorbance was recorded at 405 nm for 20 min at 25° C.
The cell-based thrombin inhibitory capacity of Compounds 1 and 2 were compared by normalising for cell number in the GPBC assay. […] Both values result from using inhibitors at 1 uM final concentration of the compounds at the cell-binding step.

[2] = test system: RBCs; assay: Internalisation by 2-colour FACS on RBCs; type: cell-based
Method: To gain insight into internal versus external exposure of the compounds, cells treated with these materials were incubated with an antibody raised against hirudin (anti Hir-mAb) which cross-reacts with the HLL-1 peptide sequence. Compounds located on the outside of cells were detected by FACS using this antibody in combination with a secondary phycoerythrin (PE)-conjugated antibody, at different time points. This system enabled the ratios of externally presented compound (red PE plus green FAM fluorescence) and internalised compound (green fluorescence only) to be estimated.

[3] = test system: Human CD34-derived progenitor cells; assay: Human plasma recalcification (clotting) assay with prothrombotic cells; type: cell-based; details: for effect on cell-promoted fibrin clot formation: cells pre-incubated with agent and washed
Method: Human plasma preparation: Human blood was drawn from volunteers with heparin and human plasma prepared by centrifugation, before storage at −80° C.
Human plasma recalcification assay (based on Lin et al Transplantation, 86(5):702-9, 2008): Human CD34-derived progenitor cells were suspended in 50 μl Tris-buffered saline and mixed with 100 μl of normal human plasma (Sigma) in glass tubes (Corning, Corning, N.Y.). Ten (10) μl of 250 mM CaCl2 in Tris-buffered saline combined with 90 μl phospholipids (Diagnostic Reagents, Oxford, UK) were added, and the tube incubated at 37° C. in a water bath—the time for a fibrin clot to form was determined in triplicate, during which time the tubes were continuously agitated by tilting. In some assays, cells were incubated with 200 uL of Compound 1 (50 uM) for 30 min at 4° C. before washing twice and inclusion in the clotting assay.

[4] = Solubility observed during preparation; type: physicochemical
Method: N-myristoyl-GSSKSPSKKKKKKPGDC(S-2-thiopyridyl)-amide (containing SEQ ID NO. 4) (Smith R, Biochem. Soc. Transactions, 30: 1037-41, 2002) was prepared by solid phase synthesis. 0.1 ml of a solution of this conjugate (10 mg/ml) in DMSO was added to a solution of HLL-1 in PBS (4.8 mM, 0.2 ml). The mixture was held at 24° C. for 1 h and the concentration of 2-thiopyridine released calculated from the absorbance at 343 nm. […] After a further 30 min at 24° C., approximately 84% of the HLL peptide had reacted. The mixture was diluted to 2 ml with PBS (slight cloudiness was observed) and then concentrated using a Vivaspin 2 3 kDa cutoff PES membrane cartridge at 2500 rpm/4° C./90 min. […] Compound 3 has a theoretical molecular weight of 4403 daltons.

[5] = test system: DA kidney graft in pre-sensitised Lewis recipients; type: in vivo, rat
From the text: Rat used were inbred male DA (RT1^a) and Lewis (RT1^i) at the age of 7-8 weeks and a weight of 150-200 g. The model of hyperimmune rejection was based on renal allografts from MHC Class I disparate donors and recipients with modifications to enable life-sustaining renal transplantation. Prior to transplantation, Lewis recipients were pre-sensitised by sequential grafting of three 2×2 cm full thickness skin DA grafts placed to the recipient's dorsal back. The first two skin transplants were received biweekly, followed by a four week period during which alloantibody reached its peak (data not shown), followed by the placement of a third skin graft.
Seven to ten days after the third skin graft, Lewis recipients received a DA kidney graft which had been perfused with different concentrations of Compound 1 (0.1-5 μM) and either flushed or not with Soltran solution (see above).
For the recipient preparation, a midline laparotomy was performed followed by removal of the left kidney. Microaneurysm clips (Johnson & Johnson, UK) were used to clamp the renal vein and artery. The donor kidney was transplanted orthotopically in an end to end anastomosis of the renal vein, artery and ureter using 10-0 sutures (BEAR MEDIC Corp, Japan). The donor and the recipient preparations were taking place simultaneously thus eliminating any cold ischemia. At the end of warm ischemia time, which was 30 minutes, the clips were removed and blood flow was restored to the transplanted kidney. Finally, a second native nephrectomy was performed making the transplanted kidney life-sustaining.
APT070 is a 23 kDa fragment of human complement receptor type 1(CR1) described in WO 98/0245. […] The inventors assessed the effects of these agents in the RATx model as a preliminary to combination studies with Compound 1. […]

**Q.** With “Conjugate of Anticoagulant Peptide HLL-1 with N-(α,ε bis-myristoyl lysine) SSKSPSKKDDKKPGDC-acid ({Myristoyl-K(myristoyl)}-SSKSPSKKDDKKPGDC-OH; also: C-terminal Cys disulfide-linked to HLL-1 peptide) [Compound 2]” as the molecule, how does the “ratio Compound 2/Compound 1 for the specific cell inhibition capacity” value ([1]; 0.05 U of thrombin) read?
**A.** The value was 2.1.

**Q.** What about the “ratio Compound 2/Compound 1 for the specific cell inhibition capacity” value ([1]; 0.1 U of thrombin) of the same molecule?
**A.** The value was 1.3.

**Q.** And the total labelled cells [2]?
**A.** Its total labelled cells is 98%.

**Q.** And the externally detected percentage ([2]; after 1 h)?
**A.** The externally detected percentage was “around 65%”.

**Q.** And the “cells red and green (compound displayed on outer cell membrane)” value ([2]; initially)?
**A.** The value was 82%.

**Q.** For CC[C@H](C)[C@H](NC(=O)[C@H](CCC(=O)O)NC(=O)[C@H](CCC(=O)O)NC(=O)[C@H](Cc1ccccc1)NC(=O)[C@H](CC(=O)O)NC(=O)CNC(=O)[C@H](CC(=O)O)NC(=O)CNC(=O)CNC(=O)CNC(=O)CNC(=O)[C@@H]1CCCN1C(=O)[C@H](CCCNC(=N)N)NC(=O)[C@@H]1CCCN1C(=O)[C@H](N)Cc1ccccc1)C(=O)N1CCC[C@H]1C(=O)N[C@@H](CCC(=O)O)C(=O)N[C@@H](CCC(=O)O)C(=O)N[C@@H](Cc1ccc(O)cc1)C(=O)N[C@@H](CC(C)C)C(=O)NCC(=O)NCC(=O)N[C@@H](CS)C(N)=O [HLL, reference compound], which “effect on cell-promoted fibrin clot formation” value [3] is on record?
**A.** The value was “little inhibition of cell-mediated clotting”.

**Q.** Which “DMSO needed to maintain solubility” value [4] does the source give for “Conjugate of Anticoagulant Peptide HLL-1 with N-myristoyl-GSSKSPSKKKKKKPGDC(S-2-thiopyridyl)-amide (Myristoyl-GSSKSPSKKKKKKPGDC-NH2; not fully specified (residue 17); also: Cys S-2-thiopyridyl (activated form), conjugated to HLL-1 via Cys) [Compound 3]” here?
**A.** Its value is > 50 % v/v.

**Q.** What about the “solubility in aqueous buffers” value [4] of the same molecule?
**A.** The value was “only limited solubility in aqueous buffers”.

**Q.** With “Conjugate of Anticoagulant Peptide HLL-1 with 1,2-distearoyl-sn-glycero-3-phosphoethanolamine-N-[2-thiopropionyl(polyethyleneglycol)-2000] (FPRPGGGGDGDFEEIPEEYLGGC; not fully specified) [Compound 1]” as the molecule, how does the “time for a fibrin clot to form, mean of three tubes” value ([3]; cells pre-incubated with Compound 1 (50 uM) 30 min at 4° C., washed twice, re-calcified human plasma) read?
**A.** Its value is 172 s.

**Q.** And the “time for a fibrin clot to form, single tube” value ([3]; cells pre-incubated with Compound 1 (50 uM) 30 min at 4° C., washed twice, re-calcified human plasma, listed as C.1)?
**A.** The value was 169 s and 172 s and 175 s.

**Q.** What about the “effect on cell-promoted fibrin clot formation” value [3] of the same molecule?
**A.** Its value is “inhibited this effect”.

**Q.** And the survival after transplantation ([5]; donor kidney perfused with 2 uM, flushed, controls did not survive longer than 48 h)?
**A.** Its survival after transplantation is 5 to 6 days.

**Q.** And the BUN deterioration ([5]; donor kidney perfused with 2 uM, flushed, versus control)?
**A.** Its BUN deterioration is “deterioration was significantly slower”.

**Q.** What about the “threshold concentration for bleeding” value ([5]; rat, in vivo) of the same molecule?
**A.** Its value is “around 10 nM”.
